Patent US20030195191A1, “N-sulfonyl hydroxamic acid derivatives as inhibitors of cd23” (priority 2000, published 2003)

Target: T1, human recombinant collagenase (Homo sapiens, UniProt P03956)
T1 construct: made in house; host or cells: E. coli
T1 sequence (P03956 100-469): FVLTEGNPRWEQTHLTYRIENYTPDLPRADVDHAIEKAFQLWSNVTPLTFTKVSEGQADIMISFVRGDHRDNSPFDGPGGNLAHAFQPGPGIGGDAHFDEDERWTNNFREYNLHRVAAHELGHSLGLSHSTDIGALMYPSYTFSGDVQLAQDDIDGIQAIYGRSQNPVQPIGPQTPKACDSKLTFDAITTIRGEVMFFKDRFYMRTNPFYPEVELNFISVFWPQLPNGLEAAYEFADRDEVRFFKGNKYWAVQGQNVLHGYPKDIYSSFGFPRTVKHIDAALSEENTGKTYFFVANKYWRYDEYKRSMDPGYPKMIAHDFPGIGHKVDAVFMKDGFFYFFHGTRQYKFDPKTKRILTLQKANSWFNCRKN
Experiment: Collagenase inhibition assay
Format: biochemical
Settings: 37° C., 18 h, acetylated 3H type 1 bovine collagen
Protocol: Procedure 2: The Ability of Test Compounds to Inhibit Collagenase was Investigated Using the Following Procedure.
Collagenase Inhibition Assay:
The potency of compounds to act as inhibitors of collagenase was determined by the method of Cawston and Barrett (Anal. Biochem. 99, 340-345, 1979), hereby incorporated by reference, whereby a 1 mM solution of the inhibitor being tested or dilutions thereof, was incubated at 37° C. for 18 h with collagen and human recombinant collagenase, from synovial fibroblasts cloned, expressed and purified from E. Coli, (buffered with 150 mM Tris, pH 7.6, containing 15 mM calcium chloride, 0.05% Brij 35, 200 mM sodium chloride and 0.02% sodium azide). The collagen was acetylated ^3H type 1 bovine collagen prepared by the method of Cawston and Murphy (methods in Enzymology 80, 711,1981) The samples were centrifuged to sediment undigested collagen and an aliquot of the radioactive supernatant removed for assay on a scintillation counter as a measure of hydrolysis. The collagenase activity in the presence of 1 mM inhibitor, or dilution thereof, was compared to activity in a control devoid of inhibitor and the results reported as that concentration effecting 50% of the collagenase (IC50).

Q: For `O=C(NO)[C@H]1CCCCN1S(=O)(=O)Cc1ccc2ccccc2c1` [Example 2, (R)-1-(Naphthalen-2-ylmethanesulfonyl)piperidine-2-carboxylic Acid N-hydroxyamide], which IC50 is on record?
A: The IC50 was greater than 10 µM.
